Key:
[1] = test system: kidney; test: Kidney histology (H&E) after PTX with or without 4-AP (Example 8); type: in vivo, mice; details: PTX treated, daily saline
Experimental: To examine effects on the kidney histological studies were conducted on this tissue. Mice received PTX on day 0 of the experiment, and half of those mice also were injected with 4-AP at this time, and every day thereafter, at a dosage of 2 mg/kg. Mice not receiving 4-AP were injected with saline to control for any stress induced by daily injections. Experimental groups also included mice receiving no PTX treatment, and treated only with daily injections of saline. Mice were sacrificed after 1 week. Mice were perfused with 4% paraformaldehyde and kidneys were sectioned and stained with haematoxylin & eosin (H&E).

[2] = test system: glial fibrillary acidic protein (GFAP); test: GFAP immunofluorescence in corpus callosum after PTX with or without 4-AP (Example 9); type: in vivo; details: E0771 tumor-bearing mice; PTX 35 mg/kg day one
Experimental: To determine whether 4-AP treatment can prevent PTX-induced increases in a reactive inflammatory response in the brain, as detected by increased expression of glial fibrillary acidic protein (GFAP), 16-week-old female C57BL/6 mice were inoculated with a triple negative murine breast cancer cell line E0771. When tumors were palpable, the mice were injected with either paclitaxel and water, 4-AP, both, or saline as a control. Paclitaxel (35 mg/kg) was injected on day one and 4-AP and water were injected daily. The mice were sacrificed on day nine and their brains were perfused and harvested. Brains were cryosectioned coronally.
The mouse brain sections were stained with anti-GFAP antibodies, followed by a fluorescent secondary, for analysis via immunofluorescence.

[3] = test system: chemotherapy-induced peripheral neuropathy (CIPN) caused by PTX; details: mouse, in vivo
Experimental: More specifically, initial studies were conducted on the specific case of CIPN as induced by exposure to PTX. […] 16 week old C73L/6 female mice were given a single dose of 35 mg/kg PTX (i.p.). Animals were separated into control (saline, i.p., n=4) or treatment group (2 mg/kg 4-AP daily, i.p., n=4). Pre-treatment Catwalk scores were compared to 21 days post-PTX injection.
To align with clinical treatments, mice were treated with a PTX dose of 35 mg/kg (equivalent to approximately 110 mg/m^2 and within the clinical treatment range) for four cycles, each three weeks apart.
The studies also included a 4-AP treatment arm (n=4) with a daily dose of 2 mg/kg 4-AP administered i.p. (as per most previous studies by MN and colleagues).
To evaluate detailed functional changes in gait, the CatWalk™ (Noldus Information Technology, Wageningen, The Netherlands) method was implemented.
Sciatic nerve samples were harvested and resin-embedded, sectioned and imaged using transmission electron microscopy. Images were analyzed to calculate markers of peripheral neuropathy, namely: axon counts, fiber size, myelination (g ratio), and circumferential irregularity (FIG. 2).

[4] = test system: CIPN; details: 0-10 point scale; cited from earlier work

SMILES | kidney histology after PTX, H&E staining [1] | expression of GFAP after PTX, corpus callosum [2] | tolerability of PTX dose [3] | average reduction in pain [4] [point]
CC(=O)O[C@H]1C(=O)[C@@]2(C)[C@H]([C@H](OC(=O)c3ccccc3)[C@]3(O)C[C@H](OC(=O)[C@H](O)[C@@H](NC(=O)c4ccccc4)c4ccccc4)C(C)=C1C3(C)C)[C@]1(OC(C)=O)CO[C@@H]1C[C@@H]2O [PTX, paclitaxel] | Loss of brush borders (dark grey arrows), nuclear dropout (grey arrow), and blebbing of tubular epithelial cells | increased expression of GFAP | tolerated the dose | 
CNCC[C@H](Oc1cccc2ccccc12)c1cccs1 [duloxetine] |  |  |  | 0.72

Source: patent US20260248773A1, “POTASSIUM CHANNEL BLOCKERS OR DERIVATIVES THEREOF FOR PREVENTING, ALLEVIATING, AND/OR TREATING TISSUE DYSFUNCTION CAUSED BY TOXIC INSULTS” (priority 2022, published 2026)
